The test system of one data set is IC patients. To be noted: cited from earlier work.
Data set [1] in a line: In vitro release of lidocaine from silicone tube devices in water at about 37° C. It counts as physicochemical. Particulars: silicone tubes about 3 cm, payload about 60 mg. How it is done:
A study was performed to determine the feasibility of delivering drug through the wall of a drug reservoir via diffusion. Devices were formed form silicone tubes having an inner diameter of about 0.060 inches, an outer diameter of 0.076 inches, and a length of about 3 cm. […] Some of the devices included an aperture formed through the tube wall, the aperture having a diameter of 150 μm. […] The devices were tested in vitro in water at about 37° C. […] Another study was performed to investigate the feasibility of delivering drug from a device through both a wall of a drug reservoir and from an aperture in the wall of the drug reservoir. Devices were formed form silicone tubes having a length of about 3 cm. […] The devices were tested in vitro in water at about 37° C.

Like-named read-outs stand apart in the source and are kept apart here.

These results are taken from US9114111B2, “Methods for sustained treatment of bladder pain and irritative voiding” (priority 2011, dated 2015).

Turning to `CCN(CC)CC(=O)Nc1c(C)cccc1C` [lidocaine], the mean pain score with IC patients (immediately following treatment, prior to treatment 6.0) is on record as 1.8; with IC patients (the next day) it was 3.7; in the data set with IC patients (with a second instillation), 1.2. Also, the duration of effect result in the data set on IC patients (single lidocaine instillation) is reported as “approximately 24 hours”.

Consider `CCN(CC)CC(=O)Nc1c(C)cccc1C` [lidocaine base], for which the “release from silicone tube with and without apertures” value in data set [1] was “can be released from a silicone tube without any apertures”.
